Experiments:
Assay type in all cases: in vivo
[1] = tested on: rat Transient Middle Cerebral Artery Occlusion (tMCAO) model; assay: Neuroscore (Modified Neurological Rating Scale, mNRS) in rat tMCAO stroke model
Procedure: (§1) Transient middle cerebral artery occlusion was performed according to the method described R. Schmid-Eisaesser et al. Briefly, the right CCA (Common Carotid Artery) was exposed through a midline neck incision and carefully dissected free from surrounding nerves and fascia —from its bifurcation to the base of the skull. The occipital artery branches of the ECA (External Carotid Artery) were then isolated, and these branches were dissected and coagulated. The ECA was dissected further distally and coagulated along with the terminal lingual and maxillary artery branches, which was then divided. The ICA (Internal Carotid Artery) was isolated and carefully separated from the adjacent vagus nerve, and the pterygopalatine artery was ligated close to its origin with a 5-0 nylon suture (SMI, Belgium). Next a 4-0 silk suture was tied loosely around the mobilized ECA stump, and a 4 cm length of 4-0 monofilament nylon suture (the tip of the suture was blunted by using a flame, and the suture was coated with polylysine, prior to insertion) was inserted through the proximal ECA into the ICA and thence into the circle of Willis, effectively occluding the MCA. The surgical wound was closed and the animals were returned to their cages to recover from anesthesia. One hour and a half after occlusion rats were re-anesthetized, the monofilament was withdrawn to allow reperfusion, the surgical wound was closed and rats were returned to their cages.
Animals were subjected to the mNSS test (Neuroscore) at Day 2, 24 hours post reperfusion. Only animals with an overall score of ≧10 were included in this Example.
Each animal was also subjected to a neuroscore test. The Modified Neurological Rating Scale (mNRS), or Neuroscore, was performed before the operation, on Day 2 and on Day 15, Day 22, Day 29, Day 36 Day 43 and Day 50. The individual making the behavioral assessments was unaware of the drug/dose given (blind test). A total Neuroscore of 18 was possible, with higher scores correlating to worse functioning.
(§2) As in Example 1, each animal was subjected to a neuroscore test. The Modified Neurological Rating Scale (mNRS), or Neuroscore, was performed before the operation as described in Example 1 on day 2, day 29, day 43, day 50, day 57, day 64 and day 71. The individual making the behavioral assessments was unaware of the drug/dose given (blind test).
as §2, with “Examples 1 and 2,” for “Example 1,”, “64, day 71. Day 78,” for “64”, “85.” for “71.”

[2] = tested on: rat Transient Middle Cerebral Artery Occlusion (tMCAO) model; assay: Stepping test (forelimb akinesia) in rat tMCAO stroke model
Procedure: as §1
Animals were tested for forelimb akinesia in a stepping test (ST). The animal was held by its hind limbs fixed with one hand and the forelimb not to be monitored with the other, while the unrestrained fore-paw touched the table. The number of adjusting steps were counted while the animal is moved, sideways along the table surface (85 cm in approximately five seconds), in the forehand & backhand direction for both forelimbs.
Animals were also tested for forelimb akinesia in a stepping test (ST) as described in Example 1 on days 29, 43, 50, 57, 64 and 71.
Animals were also tested for forelimb akinesia in a stepping test (ST) as described in Example 1 on days 29, 43, 50, 57, 64, 71, 78 and 85.

[3] = tested on: rat Transient Middle Cerebral Artery Occlusion (tMCAO) model; assay: Limb placement test in rat tMCAO stroke model
Procedure: as §1
Animals were subjected to a limb placement test. The limb placing tests were divided into both forelimb and hindlimb tests. For the forelimb-placing test, the examiner held the rat close to a tabletop and scored the rat's ability to place the forelimb on the tabletop in response to whisker, visual, tactile or proprioceptive stimulation. Similarly, for the hindlimb placing test, the examiner assessed the rat's ability to place the hindlimb on the tabletop in response to tactile and proprioceptive stimulation. Separate sub-scores are obtained for each mode of sensory input and added to give total scores (for the forelimb placing test: 0=normal, 12=maximally impaired; for the hindlimb placing test: 0=normal; 6=maximally impaired). Scores were given in half-point increments (see below).
Forelimb placing test (0-12);
Visual placing (forward (0-2), sideways (0-2))
Tactile placing (dorsal (0-2), lateral (0-2))
Proprioceptive placing (0-2)
Animals were also subjected to a limb placement test as described in Example 1 on days 29, 43, 50, 57, 64 and 71.
Animals were also subjected to a limb placement test as described in Example 1 on days 29, 43, 50, 57, 64, 71, 78 and 85.

[4] = tested on: rat Transient Middle Cerebral Artery Occlusion (tMCAO) model; assay: Body swing test in rat tMCAO stroke model
Procedure: as §1
Animals were also subjected to a body swing test. Each rat was held approximately one inch from the base of its tail. It was then elevated to an inch above a surface of a table. The rat was held in the vertical axis, defined as no more than 10° to either the left or the right side. A swing was recorded whenever the rat moved its head out of the vertical axis to either side. Before attempting another swing, the rat had to return to the vertical position for the next swing to be counted, Twenty (20) total swings were counted. A normal rat typically has an equal number of swings to either side. Following focal ischemia, the rat tends to swing to the contralateral side (left side in this Example). Body swing scores were expressed as a percentage of […] over total swings.
Animals were also subjected to a body swing test as described in Example 1 on days 29, 43, 50, 57, 64 and 71.
Animals were also subjected to a body swing test as described in Example 1 on days 29, 43, 50, 57, 64, 71, 78 and 85.

[5] = tested on: rat Transient Middle Cerebral Artery Occlusion (tMCAO) model; assay: Blood vessel diameter (Flow-R Laser Doppler) in rat tMCAO stroke model
Procedure: as §1
(§3) Evaluation of the blood flow in the brain cortex and vessel constriction was carried out using a Flow-R Laser Doppler system, in which intracranial blood flow and vessel diameter (constriction/dilation) was monitored.

[6] = tested on: rat Transient Middle Cerebral Artery Occlusion (tMCAO) model; assay: Blood flow in the brain cortex (Flow-R Laser Doppler) in rat tMCAO stroke model; conditions: for enhanced blood flow as compared to vehicle controls: Example 1 first phase, day 50
Procedure: as §1, §3

[7] = tested on: rat Transient Middle Cerebral Artery Occlusion (tMCAO) model; assay: Cylinder test of motor function in rat tMCAO stroke model; conditions: Example 2; 50 μg/kg SC daily from day 29; day 57 (day 26 all animals ~0.3; vehicle day 57 ~0.4)
Procedure: Transient middle cerebral artery occlusion was performed according to the method described R. Schmid-Eisaesser et al. Briefly, the right CCA (Common Carotid Artery) was exposed through a midline neck incision and carefully dissected free from surrounding nerves and fascia —from its bifurcation to the base of the skull. The occipital artery branches of the ECA (External Carotid Artery) were then isolated, and these branches were dissected and coagulated. The ECA was dissected further distally and coagulated along with the terminal lingual and maxillary artery branches, which was then divided. The ICA (Internal Carotid Artery) was isolated and carefully separated from the adjacent vagus nerve, and the pterygopalatine artery was ligated close to its origin with a 5-0 nylon suture (SMI, Belgium). […]
The number of wall contacts performed independently with the left and right forepaw were counted and noted up to a total of 20 wall contacts per animal per session, and only supporting contacts were counted (i.e., full appositions of the paws with open digits to the cylinder walls).

[8] = Example 3, SC daily from day 29, TXA127 100-1,000 μg/kg, TXA302 1-500 μg/kg, by day 43, maintained through day 85
[9] = Example 3, SC daily from day 29, TXA127 100-1,000 μg/kg, TXA302 1-500 μg/kg, by day 43, maintained through Day 85
[10] = Example 3, SC daily from day 29, TXA127 100-1,000 μg/kg, TXA302 1-500 μg/kg, by day 43, maintained or improved through day 85
[11] = Example 3, SC daily from day 29, TXA127 100-1,000 μg/kg, TXA302 1-500 μg/kg, by day 43
[12] = Example 1 second phase, 500 ug/kg SC from day 51, measured day 108

Asp^1-Arg^2-Val^3-Tyr^4-Ile^5-His^6-Pro^7 (DRVYIHP; listed as Homo sapiens) [TXA127]
neuroscore as compared to vehicle control animals ([1]; Example 1 first phase, 100, 300, 500 μg/kg SC daily or Alzet pump, started 24 hours after tMCAO, all treatment groups by day 15, maintained through day 50): statistically significant reduction in neuroscore
neuroscore as compared to vehicle control animals ([1]; Example 1 second phase, 500 ug/kg SC daily, first treatment day 51 after tMCAO, by day 65): statistically significant improvement
neuroscore as compared to vehicle control animals [1, 8]: statistically significant reduction in neuroscore
performance in stepping test as compared to vehicle control animals ([2]; Example 1 first phase, 100, 300, 500 μg/kg SC or Alzet, started 24 hours after tMCAO, all treatment groups by day 22): significant improvement in performance
performance in stepping test as compared to vehicle control group ([2]; Example 1 second phase, 500 ug/kg SC daily from day 51, by day 65, increasing significance by day 86): statistically significant improvement in performance
performance in stepping test as compared to vehicle control animals [2, 9]: significant improvement in performance
performance in forelimb placement test as compared to vehicle control ([3]; Example 1 first phase, 100, 300, 500 μg/kg SC or Alzet, started 24 hours after tMCAO, all treatment groups by day 15, continued through day 50): statistically significant improvements in performance
performance in forelimb placement test ([3]; Example 1 second phase, 500 ug/kg SC daily from day 51, beginning on day 72, trend as early as day 58): statistically significant improvement in performance
performance in limb placement test as compared to vehicle control animals [3, 10]: statistically significant improvements in performance
performance in body swing test ([4]; Example 1 first phase, 100, 300, 500 μg/kg SC or Alzet, started 24 hours after tMCAO, by day 15, statistical significance by day 22 in some groups, day 29 in all treatment groups): improvement in performance
performance in body swing test ([4]; Example 1 second phase, 500 ug/kg SC daily from day 51, as early as day 58, maintained throughout observation period): trend toward improved performance
performance in body swing test [4, 11]: statistically significant improvement in performance
improvement in blood vessel diameter as compared to vehicle controls ([5]; Example 1 first phase, continuous infusion via Alzet pump, day 50): ~40%
enhanced blood vessel diameter, larger than vehicle control animals ([5]; Example 1 first phase, subcutaneously administered, each treatment group (100, 300, 500 μg/kg), day 50): approximately 20%
vessel diameter as compared to vehicle control group [5, 12]: improved
enhanced blood flow as compared to vehicle controls ([6]; continuous infusion via Alzet pump): ~30%
enhanced blood flow as compared to vehicle controls ([6]; subcutaneously administered, each treatment group): ~35%
blood flow ratio as compared to vehicle control group [6, 12]: improved

Ala^1-Arg^2-Val^3-Ser^4-Ile^5-His^6-Cys^7 (ARVSIHC) [TXA302, angiotensin (1-7) peptide]
neuroscore as compared to vehicle control animals ([1]; Example 2, 50 μg/kg SC daily from day 29 (28 days post-tMCAO), by day 43, maintained through day 71): statistically significant reduction in neuroscore
neuroscore as compared to vehicle control animals [1, 8]: statistically significant reduction in neuroscore
performance in stepping test as compared to vehicle control animals ([2]; Example 2, 50 μg/kg SC daily from day 29, by day 43, maintained through Day 71): significant improvement in performance
performance in stepping test as compared to vehicle control animals [2, 9]: significant improvement in performance
performance in limb placement test as compared to vehicle control animals ([3]; Example 2, 50 μg/kg SC daily from day 29, by day 43, maintained or improved through day 71): statistically significant improvements in performance
performance in limb placement test as compared to vehicle control animals [3, 10]: statistically significant improvements in performance
performance in body swing test ([4]; Example 2, 50 μg/kg SC daily from day 29, by day 50, maintained through Day 71): statistically significant improvement in performance
performance in body swing test [4, 11]: statistically significant improvement in performance
cylinder test ratio of left paw to right paw contacts [7]: ~0.75
